Experimental data published in US11725011B2, “Bicyclic urea kinase inhibitors and uses thereof” (The Broad Institute, Inc., priority 2016, dated 2023).

Tests used:
Conditions in all cases: 1 uM
[1] = biological target: ABL1 (F317L)-phosphorylated (Homo sapiens (Human), UniProt P00519, F317L); test: KINOMEscan; type: binding
[2] = biological target: ABL1 (M351T)-phosphorylated (Homo sapiens (Human), UniProt P00519, M351T); test: KINOMEscan; type: binding
[3] = biological target: ACVR2B (Homo sapiens (Human), UniProt Q13705); test: KINOMEscan; type: binding
[4] = biological target: ADCK3 (Homo sapiens (Human), UniProt Q8NI60); test: KINOMEscan; type: binding
[5] = biological target: AURKA (Homo sapiens (Human), UniProt O14965); test: KINOMEscan; type: binding
[6] = biological target: AURKC (Homo sapiens (Human), UniProt Q9UQB9); test: KINOMEscan; type: binding
Sequence of AURKC (Q9UQB9 whole entry): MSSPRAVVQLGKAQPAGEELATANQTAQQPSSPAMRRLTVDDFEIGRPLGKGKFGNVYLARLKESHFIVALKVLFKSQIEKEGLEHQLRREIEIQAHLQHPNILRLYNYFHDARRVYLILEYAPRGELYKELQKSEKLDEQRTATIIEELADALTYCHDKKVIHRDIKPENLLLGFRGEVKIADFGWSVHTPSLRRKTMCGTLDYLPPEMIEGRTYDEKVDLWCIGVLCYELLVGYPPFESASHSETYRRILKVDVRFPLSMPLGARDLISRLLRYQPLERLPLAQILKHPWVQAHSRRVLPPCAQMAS

[7] = biological target: BRK (Homo sapiens (Human), UniProt Q13882); test: KINOMEscan; type: binding
Sequence of BRK (Q13882 whole entry): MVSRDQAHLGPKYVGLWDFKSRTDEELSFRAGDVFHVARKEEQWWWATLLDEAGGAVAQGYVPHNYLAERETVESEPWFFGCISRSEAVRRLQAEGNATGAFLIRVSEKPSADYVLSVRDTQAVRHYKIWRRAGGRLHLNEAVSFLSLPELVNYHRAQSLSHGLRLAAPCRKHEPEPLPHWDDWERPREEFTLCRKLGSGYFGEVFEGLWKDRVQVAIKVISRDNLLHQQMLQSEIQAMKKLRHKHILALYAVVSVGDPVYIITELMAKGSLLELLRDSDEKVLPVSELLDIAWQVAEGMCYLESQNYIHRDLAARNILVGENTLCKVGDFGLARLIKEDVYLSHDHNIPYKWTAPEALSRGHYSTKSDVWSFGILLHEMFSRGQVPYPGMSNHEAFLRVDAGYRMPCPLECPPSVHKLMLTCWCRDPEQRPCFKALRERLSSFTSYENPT

[8] = biological target: CLK1 (Homo sapiens (Human), UniProt P49759); test: KINOMEscan; type: binding
Sequence of CLK1 (P49759 whole entry): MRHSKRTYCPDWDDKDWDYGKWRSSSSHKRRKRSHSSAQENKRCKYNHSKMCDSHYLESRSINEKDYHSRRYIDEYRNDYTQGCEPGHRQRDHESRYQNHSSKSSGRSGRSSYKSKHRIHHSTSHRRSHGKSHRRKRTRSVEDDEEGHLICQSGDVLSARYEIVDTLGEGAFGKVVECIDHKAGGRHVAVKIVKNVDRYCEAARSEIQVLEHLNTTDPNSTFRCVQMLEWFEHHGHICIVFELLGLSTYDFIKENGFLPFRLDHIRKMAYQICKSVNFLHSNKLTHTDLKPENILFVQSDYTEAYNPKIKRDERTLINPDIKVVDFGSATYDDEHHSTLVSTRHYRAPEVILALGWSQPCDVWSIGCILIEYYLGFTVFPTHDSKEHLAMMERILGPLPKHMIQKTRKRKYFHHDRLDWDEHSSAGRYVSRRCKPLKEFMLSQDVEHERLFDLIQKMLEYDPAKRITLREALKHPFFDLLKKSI

[9] = biological target: CSNK1G1 (Homo sapiens (Human), UniProt Q9HCP0); test: KINOMEscan; type: binding
[10] = biological target: CSNK1G3 (Homo sapiens (Human), UniProt Q9Y6M4); test: KINOMEscan; type: binding
[11] = biological target: CSNK2A1 (Homo sapiens (Human), UniProt P68400); test: KINOMEscan; type: binding
[12] = biological target: CSNK2A2 (Homo sapiens (Human), UniProt P19784); test: KINOMEscan; type: binding
Sequence of CSNK2A2 (P19784 whole entry): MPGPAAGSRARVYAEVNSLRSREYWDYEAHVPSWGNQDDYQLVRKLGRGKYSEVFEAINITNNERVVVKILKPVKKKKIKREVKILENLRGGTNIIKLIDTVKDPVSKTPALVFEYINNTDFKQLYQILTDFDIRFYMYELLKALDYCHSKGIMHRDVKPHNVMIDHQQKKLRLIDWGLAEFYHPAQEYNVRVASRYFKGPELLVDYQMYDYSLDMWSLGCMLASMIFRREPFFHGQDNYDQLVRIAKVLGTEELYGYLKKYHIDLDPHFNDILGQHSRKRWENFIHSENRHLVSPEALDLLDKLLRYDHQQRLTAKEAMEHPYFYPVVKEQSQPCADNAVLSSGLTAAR

[13] = biological target: DCAMKL3 (Homo sapiens (Human), UniProt Q9C098); test: KINOMEscan; type: binding
[14] = biological target: GRK7 (Homo sapiens (Human), UniProt Q8WTQ7); test: KINOMEscan; type: binding
[15] = biological target: HCK (Homo sapiens (Human), UniProt P08631); test: KINOMEscan; type: binding
Sequence of HCK (P08631 whole entry): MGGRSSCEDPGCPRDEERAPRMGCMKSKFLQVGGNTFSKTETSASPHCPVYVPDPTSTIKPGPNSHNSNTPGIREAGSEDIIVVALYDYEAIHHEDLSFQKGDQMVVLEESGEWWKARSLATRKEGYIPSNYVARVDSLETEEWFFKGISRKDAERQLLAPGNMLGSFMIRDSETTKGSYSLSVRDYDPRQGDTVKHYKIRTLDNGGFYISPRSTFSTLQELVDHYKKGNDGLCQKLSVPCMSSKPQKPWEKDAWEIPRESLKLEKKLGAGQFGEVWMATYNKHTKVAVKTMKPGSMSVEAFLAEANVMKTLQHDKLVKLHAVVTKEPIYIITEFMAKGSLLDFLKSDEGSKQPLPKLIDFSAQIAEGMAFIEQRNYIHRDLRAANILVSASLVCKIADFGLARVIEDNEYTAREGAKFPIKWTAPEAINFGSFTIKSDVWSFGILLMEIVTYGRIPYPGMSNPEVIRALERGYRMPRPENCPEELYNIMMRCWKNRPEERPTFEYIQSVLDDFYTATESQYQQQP

[16] = biological target: HIPK2 (Homo sapiens (Human), UniProt Q9H2X6); test: KINOMEscan; type: binding
[17] = biological target: ICK (Homo sapiens (Human), UniProt Q9UPZ9); test: KINOMEscan; type: binding
[18] = biological target: JAK1 (JH2 domain-pseudokinase) (Homo sapiens (Human), UniProt P23458); test: KINOMEscan; type: binding
[19] = biological target: KIT (V559D) (Homo sapiens (Human), UniProt P10721, V559D); test: KINOMEscan; type: binding
[20] = biological target: LIMK2 (Homo sapiens (Human), UniProt P53671); test: KINOMEscan; type: binding
[21] = biological target: MAP3K2 (Homo sapiens (Human), UniProt Q9Y2U5); test: KINOMEscan; type: binding
[22] = biological target: MAPKAPK5 (Homo sapiens (Human), UniProt Q8IW41); test: KINOMEscan; type: binding
[23] = biological target: MET (Y1235D) (Homo sapiens (Human), UniProt P08581, Y1235D); test: KINOMEscan; type: binding
[24] = biological target: MST4 (Homo sapiens (Human), UniProt Q9P289); test: KINOMEscan; type: binding
[25] = biological target: PFCDPK1 (P. falciparum) (Plasmodium falciparum (isolate 3D7), UniProt P62344); test: KINOMEscan; type: binding
[26] = biological target: PFTK1 (Homo sapiens (Human), UniProt O94921); test: KINOMEscan; type: binding
[27] = biological target: PHKG2 (Homo sapiens (Human), UniProt P15735); test: KINOMEscan; type: binding
[28] = biological target: PLK4 (Homo sapiens (Human), UniProt O00444); test: KINOMEscan; type: binding
[29] = biological target: PRKR (Homo sapiens (Human), UniProt P19525); test: KINOMEscan; type: binding
[30] = biological target: PRKX (Homo sapiens (Human), UniProt P51817); test: KINOMEscan; type: binding
Sequence of PRKX (P51817 whole entry): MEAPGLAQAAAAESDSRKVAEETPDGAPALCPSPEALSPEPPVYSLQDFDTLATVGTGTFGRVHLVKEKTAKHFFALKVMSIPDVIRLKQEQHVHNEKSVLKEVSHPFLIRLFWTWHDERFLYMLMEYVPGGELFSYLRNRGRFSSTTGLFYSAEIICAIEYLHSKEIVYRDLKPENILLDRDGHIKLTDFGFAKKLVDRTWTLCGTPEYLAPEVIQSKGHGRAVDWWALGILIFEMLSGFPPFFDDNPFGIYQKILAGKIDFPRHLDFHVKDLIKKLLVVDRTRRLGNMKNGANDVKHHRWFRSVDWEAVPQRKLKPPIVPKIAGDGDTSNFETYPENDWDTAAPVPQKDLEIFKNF

[31] = biological target: PRP4 (Homo sapiens (Human), UniProt Q13523); test: KINOMEscan; type: binding
Sequence of PRP4 (Q13523 whole entry, looked up): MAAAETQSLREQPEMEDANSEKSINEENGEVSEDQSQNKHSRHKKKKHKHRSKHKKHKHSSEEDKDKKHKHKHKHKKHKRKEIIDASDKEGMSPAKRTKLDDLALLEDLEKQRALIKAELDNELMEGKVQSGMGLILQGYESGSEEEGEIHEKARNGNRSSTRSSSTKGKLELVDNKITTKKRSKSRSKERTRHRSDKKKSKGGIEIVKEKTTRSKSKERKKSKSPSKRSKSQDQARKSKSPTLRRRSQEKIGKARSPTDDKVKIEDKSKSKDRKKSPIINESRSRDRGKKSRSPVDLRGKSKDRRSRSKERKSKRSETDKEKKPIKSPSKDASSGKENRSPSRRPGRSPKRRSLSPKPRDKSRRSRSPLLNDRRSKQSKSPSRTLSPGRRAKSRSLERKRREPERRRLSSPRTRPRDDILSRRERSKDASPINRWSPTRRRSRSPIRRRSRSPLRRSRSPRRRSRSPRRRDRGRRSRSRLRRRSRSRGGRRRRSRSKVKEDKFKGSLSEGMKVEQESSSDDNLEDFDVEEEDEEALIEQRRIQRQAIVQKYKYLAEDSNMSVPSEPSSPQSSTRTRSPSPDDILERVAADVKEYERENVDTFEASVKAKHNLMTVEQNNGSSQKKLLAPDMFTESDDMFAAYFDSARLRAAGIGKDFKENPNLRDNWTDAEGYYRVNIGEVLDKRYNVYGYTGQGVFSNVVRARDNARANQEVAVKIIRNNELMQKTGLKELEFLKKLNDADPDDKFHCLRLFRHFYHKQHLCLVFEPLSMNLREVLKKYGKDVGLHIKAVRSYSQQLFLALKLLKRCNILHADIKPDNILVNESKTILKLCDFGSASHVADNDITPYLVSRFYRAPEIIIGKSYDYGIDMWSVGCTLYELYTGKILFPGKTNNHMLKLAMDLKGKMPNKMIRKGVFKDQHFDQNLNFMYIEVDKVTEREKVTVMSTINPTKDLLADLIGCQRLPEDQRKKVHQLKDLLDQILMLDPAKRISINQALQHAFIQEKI

[32] = biological target: PYK2 (Homo sapiens (Human), UniProt Q14289); test: KINOMEscan; type: binding
[33] = biological target: RAF1 (Homo sapiens (Human), UniProt P04049); test: KINOMEscan; type: binding
Sequence of RAF1 (P04049 whole entry): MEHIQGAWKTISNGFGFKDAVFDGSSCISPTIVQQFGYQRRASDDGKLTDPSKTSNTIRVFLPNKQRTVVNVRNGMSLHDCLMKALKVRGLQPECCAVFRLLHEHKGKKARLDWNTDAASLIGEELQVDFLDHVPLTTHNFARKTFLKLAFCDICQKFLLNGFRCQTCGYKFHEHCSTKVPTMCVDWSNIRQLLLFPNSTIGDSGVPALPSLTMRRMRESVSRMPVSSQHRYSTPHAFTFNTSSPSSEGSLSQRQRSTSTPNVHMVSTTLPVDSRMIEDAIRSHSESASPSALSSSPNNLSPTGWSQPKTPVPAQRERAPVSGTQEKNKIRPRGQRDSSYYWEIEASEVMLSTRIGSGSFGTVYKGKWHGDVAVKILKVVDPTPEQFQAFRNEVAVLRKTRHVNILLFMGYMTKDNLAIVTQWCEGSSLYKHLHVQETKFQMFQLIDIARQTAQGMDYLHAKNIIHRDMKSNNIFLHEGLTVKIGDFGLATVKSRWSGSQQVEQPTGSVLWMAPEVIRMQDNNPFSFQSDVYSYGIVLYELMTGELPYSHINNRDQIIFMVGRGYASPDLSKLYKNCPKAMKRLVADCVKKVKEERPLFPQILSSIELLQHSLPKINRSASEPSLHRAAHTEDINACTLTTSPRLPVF

[34] = biological target: RSK3 (Kin.Dom.2-C-terminal) (Homo sapiens (Human), UniProt Q15349); test: KINOMEscan; type: binding
[35] = biological target: SIK (Homo sapiens (Human), UniProt P57059); test: KINOMEscan; type: binding
Sequence of SIK (P57059 whole entry): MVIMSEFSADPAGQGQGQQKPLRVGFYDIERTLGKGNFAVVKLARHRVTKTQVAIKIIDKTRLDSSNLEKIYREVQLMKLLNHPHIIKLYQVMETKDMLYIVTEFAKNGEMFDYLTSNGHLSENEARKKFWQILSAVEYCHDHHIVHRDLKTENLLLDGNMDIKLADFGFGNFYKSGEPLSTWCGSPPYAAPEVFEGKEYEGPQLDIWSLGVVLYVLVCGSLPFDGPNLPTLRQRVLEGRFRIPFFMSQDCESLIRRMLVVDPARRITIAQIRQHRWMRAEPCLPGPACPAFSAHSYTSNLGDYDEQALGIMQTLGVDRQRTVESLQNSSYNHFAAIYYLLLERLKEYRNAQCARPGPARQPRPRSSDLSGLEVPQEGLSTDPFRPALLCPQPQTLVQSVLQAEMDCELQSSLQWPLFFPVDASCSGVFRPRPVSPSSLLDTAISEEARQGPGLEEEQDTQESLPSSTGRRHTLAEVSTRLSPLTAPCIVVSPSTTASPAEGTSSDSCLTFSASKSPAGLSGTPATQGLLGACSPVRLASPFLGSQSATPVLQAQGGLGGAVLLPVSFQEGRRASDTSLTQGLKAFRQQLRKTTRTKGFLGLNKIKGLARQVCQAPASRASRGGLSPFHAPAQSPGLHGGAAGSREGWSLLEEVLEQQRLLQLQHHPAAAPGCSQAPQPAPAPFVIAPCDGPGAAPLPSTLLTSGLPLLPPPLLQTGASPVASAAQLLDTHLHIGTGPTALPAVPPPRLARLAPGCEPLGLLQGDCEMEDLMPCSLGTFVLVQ

[36] = biological target: SYK (Homo sapiens (Human), UniProt P43405); test: KINOMEscan; type: binding
[37] = biological target: TAK1 (Homo sapiens (Human), UniProt O43318); test: KINOMEscan; type: binding
[38] = biological target: TYRO3 (Homo sapiens (Human), UniProt Q06418); test: KINOMEscan; type: binding
[39] = biological target: VEGFR2 (Homo sapiens (Human), UniProt P35968); test: KINOMEscan; type: binding
[40] = biological target: VRK2 (Homo sapiens (Human), UniProt Q86Y07); test: KINOMEscan; type: binding
[41] = biological target: CDC2L5 (Homo sapiens (Human), UniProt Q14004)

COc1ccc(N2C(=O)N(c3c(C)cccc3C)Cc3cnc(Nc4ccc(N5CCN(C)CC5)cc4)nc32)c(OC)c1 [HG-11-136-01]
KINOMEscan ABL1 (F317L)-phosphorylated [1]: 1.8 | KINOMEscan ABL1 (M351T)-phosphorylated [2]: 0.55 | KINOMEscan ACVR2B [3]: 3.2 | KINOMEscan ADCK3 [4]: 38 | KINOMEscan AURKA [5]: 0 | KINOMEscan AURKC [6]: 33 | KINOMEscan BRK [7]: 0.45 | KINOMEscan CLK1 [8]: 19 | KINOMEscan CSNK1G1 [9]: 92 | KINOMEscan CSNK1G3 [10]: 84 | KINOMEscan CSNK2A1 [11]: 1.9 | KINOMEscan CSNK2A2 [12]: 0.05 | KINOMEscan DCAMKL3 [13]: 77 | KINOMEscan GRK7 [14]: 96 | KINOMEscan HCK [15]: 0.05 | KINOMEscan HIPK2 [16]: 0.95 | KINOMEscan ICK [17]: 61 | KINOMEscan JAK1 (JH2 domain-pseudokinase) [18]: 8.1 | KINOMEscan KIT (V559D) [19]: 0 | KINOMEscan LIMK2 [20]: 0 | KINOMEscan MAP3K2 [21]: 0.05 | KINOMEscan MAPKAPK5 [22]: 96 | KINOMEscan MET (Y1235D) [23]: 61 | KINOMEscan MST4 [24]: 2.8 | KINOMEscan PFCDPK1 (P. falciparum) [25]: 0.1 | KINOMEscan PFTK1 [26]: 100 | KINOMEscan PHKG2 [27]: 93 | KINOMEscan PLK4 [28]: 18 | KINOMEscan PRKR [29]: 73 | KINOMEscan PRKX [30]: 100 | KINOMEscan PRP4 [31]: 100 | KINOMEscan PYK2 [32]: 15 | KINOMEscan RAF1 [33]: 93 | KINOMEscan RSK3 (Kin.Dom.2-C-terminal) [34]: 67 | KINOMEscan SIK [35]: 0.9 | KINOMEscan SYK [36]: 1.2 | KINOMEscan TAK1 [37]: 11 | KINOMEscan TYRO3 [38]: 1.6 | KINOMEscan VEGFR2 [39]: 1.8 | KINOMEscan VRK2 [40]: 86 | KINOMEscan CDC2L5 [41]: 65
